According to patent US12077503B2, “Substituted cyclic amides and their use as herbicides” (FMC CORPORATION, priority 2015, dated 2024):

Assays:
Format in all cases: in vivo
[1] = test system: velvetleaf (Abutilon theophrasti); experiment: Test G Post-Emergence Protocol; settings: Abutilon theophrasti, post-emergence, 312 h, read-out: Velvetleaf damage rating
Procedure, shortened: (§1)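 A glasshouse post-emergence test: 8-day-old plants sprayed at 15.625, 62.5 or 250 g/ha, then grown at 24/16 °C day/night with 14 h light and 65% humidity. Damage rated 13 days later, 0–100.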

corn (Zea mays) [2] = experiment: Test G Post-Emergence Protocol; settings: Zea mays, post-emergence, 312 h, read-out: Corn damage rating
Procedure, shortened: as §1

[3] = test system: giant foxtail (Setaria faberi); experiment: Test G Post-Emergence Protocol; settings: Setaria faberi, post-emergence, 312 h, read-out: Foxtail, Giant damage rating
Procedure, shortened: as §1

[4] = test system: ivy-leaved morning glory (Ipomoea hederacea); experiment: Test G Post-Emergence Protocol; settings: Ipomoea, post-emergence, 312 h, read-out: Morningglory, Ivy-leaved damage rating
Procedure, shortened: as §1

[5] = test system: barnyardgrass (Echinochloa crus-galli); experiment: Test G Post-Emergence Protocol; settings: Echinochloa crus-galli, post-emergence, 312 h, read-out: Barnyardgrass damage rating
Procedure, shortened: as §1

[6] = test system: redroot pigweed (Amaranthus retroflexus); experiment: Test G Post-Emergence Protocol; settings: Amaranthus retroflexus, post-emergence, 312 h, read-out: Pigweed, Redroot damage rating
Procedure, shortened: as §1

[7] = test system: velvetleaf (Abutilon theophrasti); experiment: Test G Pre-Emergence Protocol; settings: Abutilon theophrasti, pre-emergence, 312 h, evaluated after 13 days
Procedure, shortened: (§2)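 Under a 24/16° C day/night regime with 14 h light and 65% humidity, sown pots were sprayed after one day with compound (15.625, 62.5 or 250 g/ha; 50:50 acetone/water, 0.5% Tween 20). Damage was assessed visually 13 days later, 0 to 100.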

corn (Zea mays) [8] = experiment: Test G Pre-Emergence Protocol; settings: Zea mays, pre-emergence, 312 h, evaluated after 13 days
Procedure, shortened: as §2

[9] = test system: giant foxtail (Setaria faberi); experiment: Test G Pre-Emergence Protocol; settings: Setaria faberi, pre-emergence, 312 h, evaluated after 13 days
Procedure, shortened: as §2

[10] = test system: ivy-leaved morning glory (Ipomoea hederacea); experiment: Test G Pre-Emergence Protocol; settings: Ipomoea, pre-emergence, 312 h, evaluated after 13 days
Procedure, shortened: as §2

[11] = test system: barnyardgrass (Echinochloa crus-galli); experiment: Test G Pre-Emergence Protocol; settings: Echinochloa crus-galli, pre-emergence, 312 h, evaluated after 13 days
Procedure, shortened: as §2

[12] = test system: redroot pigweed (Amaranthus retroflexus); experiment: Test G Pre-Emergence Protocol; settings: Amaranthus retroflexus, pre-emergence, 312 h, evaluated after 13 days
Procedure, shortened: as §2

[13] = 15.625 g ai/ha, evaluated after 13 days (100=total damage to plant; 0=no damage to plant)
[14] = 62.5 g ai/ha, evaluated after 13 days, 100=total damage to plant, 0=no damage to plant
[15] = 250 g ai/ha, evaluated after 13 days, 100=total damage to plant, 0=no damage to plant

Cc1c(F)cccc1NC(=O)[C@@H]1C(=O)N(C)C[C@H]1c1cccc(C(C)(C)F)c1 (racemic) [Compound 1827]
50%: pest or weed control at 15.625 g/ha [3, 13] | plant injury at 250 g/ha (corn (Zea mays) [8]; 250 g ai/ha, read-out: Corn damage rating (100=total damage to plant; 0=no damage to plant))
20%: pest or weed control at 250 g/ha ([10]; 250 g ai/ha, read-out: Morningglory, Ivy-leaved damage rating (100=total damage to plant; 0=no damage to plant))
0%: pest or weed control at 15.625 g/ha [1, 13] | pest or weed control at 62.5 g/ha [1, 14] | plant injury at 15.625 g/ha (corn (Zea mays) [2]; [13]) | pest or weed control at 15.625 g/ha [4, 13] | pest or weed control at 15.625 g/ha [5, 13] | pest or weed control at 15.625 g/ha [6, 13] | pest or weed control at 62.5 g/ha [6, 14] | pest or weed control at 250 g/ha [6, 15] | pest or weed control at 15.625 g/ha ([7]; 15.625 g ai/ha, read-out: Velvetleaf damage rating (100=total damage to plant; 0=no damage to plant)) | pest or weed control at 62.5 g/ha ([7]; 62.5 g ai/ha, 100=total damage to plant, 0=no damage to plant, read-out: Velvetleaf damage rating) | plant injury at 15.625 g/ha (corn (Zea mays) [8]; 15.625 g ai/ha, read-out: Corn damage rating (100=total damage to plant; 0=no damage to plant)) | plant injury at 62.5 g/ha (corn (Zea mays) [8]; 62.5 g ai/ha, 100=total damage to plant, 0=no damage to plant, read-out: Corn damage rating) | pest or weed control at 15.625 g/ha ([10]; 15.625 g ai/ha, read-out: Morningglory, Ivy-leaved damage rating (100=total damage to plant; 0=no damage to plant)) | pest or weed control at 62.5 g/ha ([10]; 62.5 g ai/ha, 100=total damage to plant, 0=no damage to plant, read-out: Morningglory, Ivy-leaved damage rating) | pest or weed control at 15.625 g/ha ([11]; 15.625 g ai/ha, read-out: Barnyardgrass damage rating (100=total damage to plant; 0=no damage to plant)) | pest or weed control at 15.625 g/ha ([12]; 15.625 g ai/ha, read-out: Pigweed, Redroot damage rating (100=total damage to plant; 0=no damage to plant)) | pest or weed control at 62.5 g/ha ([12]; 62.5 g ai/ha, 100=total damage to plant, 0=no damage to plant, read-out: Pigweed, Redroot damage rating) | pest or weed control at 250 g/ha ([12]; 250 g ai/ha, read-out: Pigweed, Redroot damage rating (100=total damage to plant; 0=no damage to plant))
70%: pest or weed control at 62.5 g/ha [5, 14]
80%: pest or weed control at 62.5 g/ha [3, 14] | pest or weed control at 250 g/ha [3, 15] | pest or weed control at 250 g/ha [5, 15] | pest or weed control at 62.5 g/ha ([11]; 62.5 g ai/ha, 100=total damage to plant, 0=no damage to plant, read-out: Barnyardgrass damage rating)
10%: plant injury at 62.5 g/ha (corn (Zea mays) [2]; [14]) | pest or weed control at 62.5 g/ha [4, 14] | pest or weed control at 250 g/ha [4, 15] | pest or weed control at 250 g/ha ([7]; 250 g ai/ha, read-out: Velvetleaf damage rating (100=total damage to plant; 0=no damage to plant))
60%: plant injury at 250 g/ha (corn (Zea mays) [2]; [15])
90%: pest or weed control at 62.5 g/ha ([9]; 62.5 g ai/ha, 100=total damage to plant, 0=no damage to plant, read-out: Foxtail, Giant damage rating) | pest or weed control at 250 g/ha ([9]; 250 g ai/ha, read-out: Foxtail, Giant damage rating (100=total damage to plant; 0=no damage to plant)) | pest or weed control at 250 g/ha ([11]; 250 g ai/ha, read-out: Barnyardgrass damage rating (100=total damage to plant; 0=no damage to plant))
40%: pest or weed control at 250 g/ha [1, 15] | pest or weed control at 15.625 g/ha ([9]; 15.625 g ai/ha, read-out: Foxtail, Giant damage rating (100=total damage to plant; 0=no damage to plant))
